Molecular target: T1, F508del (Homo sapiens, UniProt P13569, DEL508-508)
T1 construct: expressed in transfected cells
Assay: Protocol 2: FRET membrane potential optical assay (VIPR), identification of correction compounds
Type: cell-based
Conditions: Table 3; compounds of Table 1 as modulators of CFTR activity; protocol not stated
How it was run: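 NIH3T3 mouse fibroblasts stably expressing F508del were treated with test compound for 16 hrs at 37° C. in serum-free medium; 27° C. incubation served as positive control. F508del was activated with 10 μM forskolin plus 20 μM genistein in Cl^−-free medium, and Cl^− efflux-driven depolarization was read by DiSBAC2(3)/CC2-DMPE FRET.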

T1 sequence (P13569 with tags, fused parts or gaps DEL508-508): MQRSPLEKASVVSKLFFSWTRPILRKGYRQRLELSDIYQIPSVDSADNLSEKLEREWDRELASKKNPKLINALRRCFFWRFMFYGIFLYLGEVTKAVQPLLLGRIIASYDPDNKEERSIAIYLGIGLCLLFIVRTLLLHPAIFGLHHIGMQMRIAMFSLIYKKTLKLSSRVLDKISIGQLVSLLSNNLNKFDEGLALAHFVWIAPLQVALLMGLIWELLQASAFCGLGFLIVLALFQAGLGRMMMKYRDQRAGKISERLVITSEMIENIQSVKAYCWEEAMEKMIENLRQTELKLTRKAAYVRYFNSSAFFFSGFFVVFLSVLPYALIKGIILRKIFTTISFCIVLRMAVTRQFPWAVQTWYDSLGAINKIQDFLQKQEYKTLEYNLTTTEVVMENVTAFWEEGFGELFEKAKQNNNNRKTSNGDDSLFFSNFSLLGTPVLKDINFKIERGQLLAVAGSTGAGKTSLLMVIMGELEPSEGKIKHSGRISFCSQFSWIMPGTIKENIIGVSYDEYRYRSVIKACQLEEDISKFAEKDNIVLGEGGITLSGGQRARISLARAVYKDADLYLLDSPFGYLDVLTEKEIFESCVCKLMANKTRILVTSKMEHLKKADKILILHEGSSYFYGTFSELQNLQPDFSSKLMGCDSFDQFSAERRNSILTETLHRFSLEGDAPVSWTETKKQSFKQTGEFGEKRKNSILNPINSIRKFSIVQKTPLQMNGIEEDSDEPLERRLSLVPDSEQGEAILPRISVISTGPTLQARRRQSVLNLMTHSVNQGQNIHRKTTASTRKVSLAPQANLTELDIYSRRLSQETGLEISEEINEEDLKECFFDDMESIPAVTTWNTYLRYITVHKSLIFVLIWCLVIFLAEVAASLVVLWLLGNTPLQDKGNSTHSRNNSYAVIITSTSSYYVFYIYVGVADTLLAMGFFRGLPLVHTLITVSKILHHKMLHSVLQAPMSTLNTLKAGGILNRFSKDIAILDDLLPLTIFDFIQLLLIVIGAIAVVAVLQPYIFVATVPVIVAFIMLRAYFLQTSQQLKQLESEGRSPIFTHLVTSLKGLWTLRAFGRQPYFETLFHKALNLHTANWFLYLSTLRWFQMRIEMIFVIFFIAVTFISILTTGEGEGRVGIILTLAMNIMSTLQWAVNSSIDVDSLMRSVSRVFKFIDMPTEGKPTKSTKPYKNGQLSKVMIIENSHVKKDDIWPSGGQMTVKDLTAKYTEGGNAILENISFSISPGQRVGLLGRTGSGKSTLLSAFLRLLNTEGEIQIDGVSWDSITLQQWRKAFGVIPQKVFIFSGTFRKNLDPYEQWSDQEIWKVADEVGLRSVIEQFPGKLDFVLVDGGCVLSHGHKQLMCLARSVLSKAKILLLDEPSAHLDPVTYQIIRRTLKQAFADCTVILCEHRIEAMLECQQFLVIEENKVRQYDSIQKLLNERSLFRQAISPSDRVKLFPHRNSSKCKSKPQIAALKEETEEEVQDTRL

SMILES	EC30
Cc1cccc(-c2cc(C(=O)NS(=O)(=O)c3ccccc3)n(Cc3c(C)cccc3C)n2)c1 [Compound 202, N-(benzenesulfonyl)-2-[(2,6-dimethylphenyl)methyl]-5-(m-tolyl)pyrazole-3-carboxamide]	+++ (“+++” means <3 uM)
Cc1cc(C)c(Oc2nc(-c3ccccc3)ccc2C(=O)NS(=O)(=O)c2cccc(N)n2)c(C)c1 [Compound 203, N-[(6-amino-2-pyridyl)sulfonyl]-6-phenyl-2-(2,4,6-trimethylphenoxy)pyridine-3-carboxamide]	+++ (“+++” means <3 uM)
Cc1ccc(Oc2nc(C(C)(C)C)ccc2C(=O)NS(=O)(=O)c2cccc(N)n2)c(C)c1 [Compound 204, N-[(6-amino-2-pyridyl)sulfonyl]-6-tert-butyl-2-(2,4-dimethylphenoxy)pyridine-3-carboxamide]	+++ (“+++” means <3 uM)
Cc1cc(C)c(Oc2nc(C(C)(C)C)ccc2C(=O)NS(=O)(=O)c2cccc(C(=O)O)c2)c(C)c1 [Compound 205, 3-[[6-tert-butyl-2-(2,4,6-trimethylphenoxy)pyridine-3-carbonyl]sulfamoyl]benzoic acid]	++ (“++” means between 3 uM and 10 uM)
COc1ccc(S(=O)(=O)NC(=O)c2ccc(C(C)(C)C)nc2-c2ccc(C)cc2)cc1 [Compound 206, 6-tert-butyl-N-(4-methoxyphenyl)sulfonyl-2-(p-tolyl)pyridine-3-carboxamide]	+++ (“+++” means <3 uM)
Cc1cc(C)c(Oc2nc(-c3ccc(Cl)cc3F)ccc2C(=O)NS(=O)(=O)c2cccc(N)n2)c(C)c1 [Compound 207, N-[(6-amino-2-pyridyl)sulfonyl]-6-(4-chloro-2-fluoro-phenyl)-2-(2,4,6-trimethylphenoxy)pyridine-3-carboxamide]	+++ (“+++” means <3 uM)
COc1c(C)cccc1-c1cc(C(=O)NS(=O)(=O)c2cccc(N)c2)n(Cc2c(C)cc(C)cc2C)n1 [Compound 208, N-(3-aminophenyl)sulfonyl-5-(2-methoxy-3-methyl-phenyl)-2-[(2,4,6-trimethylphenyl)methyl]pyrazole-3-carboxamide]	+++ (“+++” means <3 uM)
Cc1cc(C)c(Cn2nc(-c3c(C)cccc3C)cc2C(=O)NS(=O)(=O)c2cccc(N)c2)c(C)c1 [Compound 209, N-(3-aminophenyl) sulfonyl-5-(2,6-dimethylphenyl)-2-[(2,4,6-trimethylphenyl)methyl]pyrazole-3-carboxamide]	+++ (“+++” means <3 uM)
Cc1cccc(C)c1Cn1nc(C(C)(C)C)cc1C(=O)NS(=O)(=O)c1cccc2c1ccn2C [Compound 210, 5-tert-butyl-2-[(2,6-dimethylphenyl)methyl]-N-(1-methylindol-4-yl)sulfonyl-pyrazole-3-carboxamide]	+++ (“+++” means <3 uM)
Cc1cccc(C)c1Cn1nc(C(C)(C)C)cc1C(=O)NS(=O)(=O)c1cccc2c1OCC2 [Compound 211, 5-tert-butyl-N-(2,3-dihydrobenzofuran-7-ylsulfonyl)-2-[(2,6-dimethylphenyl)methyl]pyrazole-3-carboxamide]	++ (“++” means between 3 uM and 10 uM)
Cc1cc(C)c(Cn2c(C(=O)NS(=O)(=O)c3ccccc3)cc3ccc(F)cc32)c(C)c1 [Compound 212, N-(benzenesulfonyl)-6-fluoro-1-[(2,4,6-trimethylphenyl)methyl]indole-2-carboxamide]	+++ (“+++” means <3 uM)
Cc1cc(C)c(CN2Cc3ccccc3CC2C(=O)NS(=O)(=O)c2cccc(N)c2)c(C)c1 (stereo not drawn) [Compound 213, N-(3-aminophenyl)sulfonyl-2-[(2,4,6-trimethylphenyl)methyl]-3,4-dihydro-1H-isoquinoline-3-carboxamide]	+++ (“+++” means <3 uM)
Cc1cc(C)c(Oc2nc(C(C)(C)C)ccc2C(=O)NS(=O)(=O)c2ccn[nH]2)c(C)c1 [Compound 214, 6-tert-butyl-N-(1H-pyrazol-5-ylsulfonyl)-2-(2,4,6-trimethylphenoxy)pyridine-3-carboxamide]	+++ (“+++” means <3 uM)
Cc1cc(C)c(Oc2nc3ccccc3cc2C(=O)NS(=O)(=O)c2ccccc2)c(C)c1 [Compound 215, N-(benzenesulfonyl)-2-(2,4,6-trimethylphenoxy)quinoline-3-carboxamide]	+++ (“+++” means <3 uM)
Cc1cc(C)c(Oc2nc(-c3ccc(C#N)cc3)ccc2C(=O)NS(=O)(=O)c2cccc(N)n2)c(C)c1 [Compound 216, N-[(6-amino-2-pyridyl)sulfonyl]-6-(4-cyanophenyl)-2-(2,4,6-trimethylphenoxy)pyridine-3-carboxamide]	+++ (“+++” means <3 uM)
COc1cc(S(=O)(=O)NC(=O)c2ccc(C(C)(C)C)nc2Oc2c(C)cc(C)cc2C)ccn1 [Compound 217, 6-tert-butyl-N-[(2-methoxy-4-pyridyl)sulfonyl]-2-(2,4,6-trimethylphenoxy)pyridine-3-carboxamide]	+++ (“+++” means <3 uM)
COc1ncccc1S(=O)(=O)NC(=O)C1c2ccccc2CN1Cc1c(C)cc(C)cc1C (stereo not drawn) [Compound 218, N-[(2-methoxy-3-pyridyl)sulfonyl]-2-[(2,4,6-trimethylphenyl)methyl]isoindoline-1-carboxamide]	++ (“++” means between 3 uM and 10 uM)
CC(Oc1nc(C(C)(C)C)ccc1C(=O)NS(=O)(=O)c1cccc(N)c1)c1ccccc1 (stereo not drawn) [Compound 219, N-(3-aminophenyl)sulfonyl-6-tert-butyl-2-(1-phenylethoxy)pyridine-3-carboxamide]	+++ (“+++” means <3 uM)
Cc1cccc(C)c1Cn1nc(-c2cccc(C(F)(F)F)c2)cc1C(=O)NS(=O)(=O)c1ccccc1 [Compound 220, N-(benzenesulfonyl)-2-[(2,6-dimethylphenyl)methyl]-5-[3-(trifluoromethyl)phenyl]pyrazole-3-carboxamide]	+++ (“+++” means <3 uM)
Cc1cc(C)c(Oc2nc(C(C)(C)C)ccc2C(=O)NS(=O)(=O)c2cccc(N)c2)c(C#N)c1 [Compound 221, N-(3-aminophenyl)sulfonyl-6-tert-butyl-2-(2-cyano-4,6-dimethyl-phenoxy)pyridine-3-carboxamide]	+++ (“+++” means <3 uM)
Cc1cc(C)c(Oc2nc(C(C)(C)C)ccc2C(=O)NS(=O)(=O)c2ccccn2)c(C)c1 [Compound 222, 6-tert-butyl-N-(2-pyridylsulfonyl)-2-(2,4,6-trimethylphenoxy)pyridine-3-carboxamide]	+++ (“+++” means <3 uM)

Continued, values first:

EC30	SMILES
+++ (“+++” means <3 uM)	CC(C)(C)c1ccc(C(=O)NS(=O)(=O)c2cccc(N)c2)c(-c2ccc(Cl)cc2)n1 [Compound 223, N-(3-aminophenyl)sulfonyl-6-tert-butyl-2-(4-chlorophenyl)pyridine-3-carboxamide]
+++ (“+++” means <3 uM)	Cc1cc(C)c(Oc2cc(C(C)(C)C)ccc2C(=O)NS(=O)(=O)c2cccc(N)c2)c(C)c1 [Compound 224, N-(3-aminophenyl)sulfonyl-4-tert-butyl-2-(2,4,6-trimethylphenoxy)benzamide]
+++ (“+++” means <3 uM)	Cc1cccc(C)c1Cn1nc(-c2cccc(OC(F)(F)F)c2)cc1C(=O)NS(=O)(=O)c1ccccc1 [Compound 225, N-(benzenesulfonyl)-2-[(2,6-dimethylphenyl)methyl]-5-[3-(trifluoromethoxy)phenyl]pyrazole-3-carboxamide]
+++ (“+++” means <3 uM)	Cc1cc(C)c(Oc2nc(C(C)(C)C)ccc2C(=O)NS(=O)(=O)c2nc(N)ccc2F)c(C)c1 [Compound 226, N-[(6-Amino-3-fluoro-2-pyridyl)sulfonyl]-6-tert-butyl-2-(2,4,6-trimethylphenoxy)pyridine-3-carboxamide]
++ (“++” means between 3 uM and 10 uM)	Cc1cc(C)c(Cn2c(C(=O)NS(=O)(=O)c3ccncc3)cc3ccccc32)c(C)c1 [Compound 227, N-(4-pyridylsulfonyl)-1-[(2,4,6-trimethylphenyl)methyl]indole-2-carboxamide]
+++ (“+++” means <3 uM)	Cc1cc(C)c(Oc2nc(C(C)(C)C)ccc2C(=O)NS(=O)(=O)c2cccc(N)n2)c(C)c1 [Compound 228, N-[(6-amino-2-pyridyl)sulfonyl]-6-tert-butyl-2-(2,4,6-trimethylphenoxy)pyridine-3-carboxamide]
+++ (“+++” means <3 uM)	CC(C)(C)c1cccc(-c2nc(C(C)(C)C)ccc2C(=O)NS(=O)(=O)c2cccc(N)c2)c1 [Compound 229, N-(3-aminophenyl)sulfonyl-6-tert-butyl-2-(3-tert-butylphenyl)pyridine-3-carboxamide]
++ (“++” means between 3 uM and 10 uM)	Cc1cc(C)c(CN2Cc3ccccc3C2C(=O)NS(=O)(=O)c2ccccc2N)c(C)c1 (stereo not drawn) [Compound 230, N-(2-aminophenyl)sulfonyl-2-[(2,4,6-trimethylphenyl)methyl]isoindoline-1-carboxamide]
+++ (“+++” means <3 uM)	Cc1cc(C)c(Oc2nc(-c3ccccc3)ccc2C(=O)NS(=O)(=O)c2cccc(N)c2)c(C)c1 [Compound 231, N-(3-aminophenyl)sulfonyl-6-phenyl-2-(2,4,6-trimethylphenoxy)pyridine-3-carboxamide]
+++ (“+++” means <3 uM)	Cc1cc(C)c(Cn2c(C(=O)NS(=O)(=O)c3ccccc3)c(C)c3ccccc32)c(C)c1 [Compound 232, N-(benzenesulfonyl)-3-methyl-1-[(2,4,6-trimethylphenyl)methyl]indole-2-carboxamide]
+++ (“+++” means <3 uM)	CC(C)Oc1ccc(-c2ccc(C(=O)NS(=O)(=O)c3cccc(N)n3)c(N3CCCC(c4ccccc4)C3)n2)cn1 (stereo not drawn) [Compound 233, N-[(6-amino-2-pyridyl)sulfonyl]-6-(6-isopropoxy-3-pyridyl)-2-[-3-phenyl-1-piperidyl]pyridine-3-carboxamide]
+++ (“+++” means <3 uM)	Cc1cc(C)c(Oc2nc(-c3ccc(Cl)cc3)ccc2C(=O)NS(=O)(=O)c2cccc(N)n2)c(C)c1 [Compound 234, N-[(6-amino-2-pyridyl)sulfonyl]-6-(4-chlorophenyl)-2-(2,4,6-trimethylphenoxy)pyridine-3-carboxamide]

Reference: patent US10758534B2 (Vertex Pharmaceuticals Incorporated, priority 2014, dated 2020)
